Data reported in paper PMC7857147 (Biochemistry, 2019).

Legend:
PhDph2 = PhDph2 (Pyrococcus horikoshii, UniProt O58832, R289A); experiment: HPLC of SAM cleavage to MTA; format: biochemical; conditions: 60 uM SAM, 1 mM dithionite, pH 7.4, 65 °C, 10 min, no EF-2, anaerobic
crystal structure = molecular target: the molecule itself; experiment: crystal structure

PhDph2, sequence (O58832 whole entry R289A): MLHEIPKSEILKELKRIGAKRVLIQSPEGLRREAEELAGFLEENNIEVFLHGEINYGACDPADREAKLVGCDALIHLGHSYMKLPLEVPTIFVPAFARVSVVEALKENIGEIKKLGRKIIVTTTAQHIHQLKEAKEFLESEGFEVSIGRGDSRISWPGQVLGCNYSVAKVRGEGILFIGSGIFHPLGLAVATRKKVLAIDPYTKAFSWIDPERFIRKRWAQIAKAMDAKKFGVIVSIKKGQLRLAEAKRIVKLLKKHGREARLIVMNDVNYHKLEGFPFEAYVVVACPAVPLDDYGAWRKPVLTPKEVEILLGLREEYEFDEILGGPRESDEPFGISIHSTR

## C[S+](CC[C@H](N)C(=O)O)C[C@H]1O[C@@H](n2cnc3c(N)ncnc32)[C@H](O)[C@@H]1O (some centres unmarked) [SAM]
PhDph2
  HPLC of SAM cleavage to MTA: the R289A mutant still had SAM cleavage activity

B1: Methanobrevibacter smithii Dph2 (enzyme, UniProt A5UMY5 1-334, looked up)
chain: MSMYNMDLDKVIRKINKKGARTVGLQFPEGLKMQAVKIAKAIESQTPATVIISGDPCFGACDVSDYKMKGSVDLIVHYGHTPLPLKYEVPTLFIEAFSNIDVKKDLEKCLEKLEDYSKIALVTTTQHLHLLNEIKDYLEDNGKEVVLGSSKNTKKGQVLGCNFSSIKNLDAEVYLFIGSGNFHPLGIYLFTKSPVLALDPYNSEIRDISAFADRILRIRFARITKAREAEKWGIIVSSKEGQYRMKLAKEIKKILEDNKMEAYIIMADNINPDILLPYMELDAFVVSACPRIAIDDSQMYKKPLLTPQELEIVLNKRQWENYQLDEILFHERYK
Crystal structure
  stoichiometry N: 2
